# According to patent US10370371B2, “Substituted pyrimidine Bmi-1 inhibitors” (PTC Therapeutics, Inc., priority 2013, dated 2019):
# Tested on: Bmi-1 protein
# Experiment: Sandwich ELISA Assay (Bmi-1 protein level in HT-1080 cells)
# Assay type: cell-based
# Experimental: Cell Seeding and Compound Treatment (Day 1):
# HT-1080 cells were seeded at 8000 cells/well (50 μL) in 96-well tissue culture plates. After the cells became adherent (3-4 hours), 2× diluted stocks of test compounds in 50 μL DMEM containing 1% DMSO (final DMSO concentration was 0.5%) were added and the plates were incubated at 37° C. under 5% CO2 for 40-48 hours.
# ELISA Plate First Antibody Preparation (Day 2):
# The First Antibody (Millipore Mouse, monoclonal to mouse Bmi-1, clone F6, catalog #05-637) diluted to 2 μg/mL in PBS was added (100 μL) to each well of a Nunc MaxiSorp 96-well ELISA plate. The plate was covered with a plate seal and allowed to stand overnight.
# Cell Lysate Preparation (Day 3):
# Fresh Lysis buffer (1×) was prepared on the day of the assay as follows: 1 mM EDTA, 150 mM NaCl, 0.5% Triton-X 100, 10 mM NaF, 20 mM B-Glycerophosphate, 1 mM DTT (in PBS, pH 7.2-7.4) and HALT protease inhibitor cocktail (1×) (Pierce #78410).
# Lysis Buffer (1×, 40 μL) was added to each well and the plate was shaken for 5-10 minutes on an orbital shaker to allow cell lysis, then diluent (1% BSA in PBS in 0.5% NP40) (100 μL) was added to each well.
# A standard curve was prepared at the following Bmi-1 concentrations: 8000, 4000, 2000, 1000, 500, 250, 125 and 0 pg/mL. The Bmi-1 Recombinant Protein Standard (Novus Biologicals PCGF4 Recombinant Protein (P01), catalog # H00000648-P01) used to prepare the standard curve was stored at −80° C. On first thaw, the Recombinant Protein Standard was diluted to 10 μg/μL in Blocking Buffer (1% BSA in PBS; BSA: Fisher Scientific Catalog #1600-100). Aliquots were taken and refrozen at −80° C. The aliquots may be kept at 4° C. and reused after first thaw, but only within 1-2 weeks. The Recombinant Protein Standard contains a GST-fusion tag that appears at approximately 70 Kda on Western Blot.
# The prepared ELISA plate was washed 3× with Wash Buffer (0.05% Tween-20 in PBS). The final wash was removed from the plate and the plate was blotted dry. Blocking Buffer (300 μL) (1% BSA in PBS) was added to each well. The plate was covered with a plate seal and incubated at room temperature for 1 hour. The blocked plate was washed 3× with Wash Buffer, then the final wash was removed and the plate was blotted dry. The previously prepared samples and standards were added (100 μL/well) and the plate was covered with a plate seal and incubated at 4° C. overnight.
# The prepared ELISA plate was removed from incubation and allowed to stand at room temperature for 30 minutes, then washed and blotted dry. The Second Antibody (Cell Signaling Rabbit anti-Bmi-1, Cat#2830) diluted to 1:600 in Blocking Buffer was added (100 μL) to each well, except as needed for background control wells. The plate was covered with a plate seal and incubated for 1.5 hrs at room temperature.
# The ELISA plate was washed and blotted dry as previously described. The Third Antibody (Cell Signaling HRP conjugated anti-rabbit IgG (CellSignaling, Cat#:7074) diluted to 1:300 in Blocking Buffer was added (100 μL) to each well, except as needed for background control wells. The plate was incubated for 1 hr at room temperature.
# The plate was washed and blotted dry, then a previously prepared TMB substrate (TMB substrate kit, Pierce catalog #34021) (prepared by mixing kit reagents 1:1) (100 μL) was added per well. The plate was incubated for 20-30 minutes at room temperature in the dark, then Stop Solution (2 M sulfuric acid in water) (50 μL) was added per well. The plates were read at OD450 (experimental) and OD570 (reference).
row,SMILES,EC50 [µM]
1,"CCc1nc2cc(F)c(F)cc2n1-c1cc(N)nc(Nc2ccc(C(F)(F)F)cc2)n1 [Cpd 65, 6-(2-ethyl-5,6-difluoro-1H-benzimidazol-1-yl)-N^2-[4-(trifluoromethyl)phenyl]pyrimidine-2,4-diamine]",0.01 to 0.1
2,"Nc1cc(-n2c(C3CC3)nc3cc(F)c(F)cc32)nc(Nc2ccc(OC(F)F)cc2)n1 [Cpd 66, 6-(2-cyclopropyl-5,6-difluoro-1H-benzimidazol-1-yl)-N^2-[4-(difluoromethoxy)phenyl]pyrimidine-2,4-diamine]",0.001 to 0.01
3,"N#Cc1cc(-n2c(C3CC3)nc3cc(F)c(F)cc32)nc(Nc2ccc(C(F)(F)F)cc2)n1 [Cpd 67, 6-(2-cyclopropyl-5,6-difluoro-1H-benzimidazol-1-yl)-2-{[4-(trifluoromethyl)phenyl]amino}pyrimidine-4-carbonitrile]",0.1 to 3
4,"Cc1nc2cc(F)c(F)cc2n1-c1cc(C#N)nc(Nc2ccc(C(F)(F)F)cc2)n1 [Cpd 68, 6-(5,6-difluoro-2-methyl-1H-benzimidazol-1-yl)-2-{[4-(trifluoromethyl)phenyl]amino}pyrimidine-4-carbonitrile]",0.1 to 3
5,"Nc1cc(-n2c(C(F)F)nc3ccccc32)nc(Nc2ccc(C(F)(F)F)cc2)n1 [Cpd 69, 6-[2-(difluoromethyl)-1H-benzimidazol-1-yl]-N^2-[4-(trifluoromethyl)phenyl]pyrimidine-2,4-diamine]",0.01 to 0.1
6,"Nc1cc(-n2c(C(F)F)nc3ccc(F)cc32)nc(Nc2ccc(OC(F)F)cc2)n1 [Cpd 72, N^2-[4-(difluoromethoxy)phenyl]-6-[2-(difluoromethyl)-6-fluoro-1H-benzimidazol-1-yl]pyrimidine-2,4-diamine]",0.01 to 0.1
7,"NC(=O)c1cccc(Nc2nccc(-c3cnc4ccccn34)n2)c1 [Cpd 75, 3-{[4-(imidazo[1,2-a]pyridin-3-yl)pyrimidin-2-yl]amino}benzamide]",0.1 to 3
8,"CCc1nc2cc(F)c(F)cc2n1-c1cc(N)nc(Nc2ccc(OC(F)F)cc2)n1 [Cpd 76, N^2-[4-(difluoromethoxy)phenyl]-6-(2-ethyl-5,6-difluoro-1H-benzimidazol-1-yl)pyrimidine-2,4-diamine]",0.01 to 0.1
9,"Cc1nc2cc(F)c(F)cc2n1-c1cc(N)nc(Nc2ccc(OC(F)F)cc2)n1 [Cpd 77, N^2-[4-(difluoromethoxy)phenyl]-6-(5,6-difluoro-2-methyl-1H-benzimidazol-1-yl)pyrimidine-2,4-diamine]",0.01 to 0.1
10,"Cc1nn2ccccc2c1-c1cc(N)nc(Nc2ccc(C(F)(F)F)cc2)n1 [Cpd 82, 6-(2-methylpyrazolo[1,5-a]pyridin-3-yl)-N^2-[4-(trifluoromethyl)phenyl]pyrimidine-2,4-diamine]",0.01 to 0.1
11,"Cc1nc2ccccc2n1-c1cc(N)nc(Nc2ccc(OC(F)F)cc2)n1 [Cpd 83, N^2-[4-(difluoromethoxy)phenyl]-6-(2-methyl-1H-benzimidazol-1-yl)pyrimidine-2,4-diamine]",0.01 to 0.1
12,"CCc1nc2ccccc2n1-c1cc(N)nc(Nc2ccc(OC(F)F)cc2)n1 [Cpd 84, N^2-[4-(difluoromethoxy)phenyl]-6-(2-ethyl-1H-benzimidazol-1-yl)pyrimidine-2,4-diamine]",0.01 to 0.1
13,"Nc1cc(-n2c(C3CC3)nc3ccccc32)nc(Nc2ccc(OC(F)F)cc2)n1 [Cpd 85, 6-(2-cyclopropyl-1H-benzimidazol-1-yl)-N^2-[4-(difluoromethoxy)phenyl]pyrimidine-2,4-diamine]",0.01 to 0.1
14,"Nc1cc(-n2c(C3CC3)nc3cc(Cl)ccc32)nc(Nc2ccc(C(F)(F)F)cc2)n1 [Cpd 86, 6-(5-chloro-2-cyclopropyl-1H-benzimidazol-1-yl)-N^2-[4-(trifluoromethyl)phenyl]pyrimidine-2,4-diamine]",0.1 to 3
15,"Nc1cc(-n2c(C3CC3)nc3ccc(Cl)cc32)nc(Nc2ccc(C(F)(F)F)cc2)n1 [Cpd 87, 6-(6-chloro-2-cyclopropyl-1H-benzimidazol-1-yl)-N^2-[4-(trifluoromethyl)phenyl]pyrimidine-2,4-diamine]",0.01 to 0.1
